Here are results for 15 compounds from patent US20220168427A1 (Ranok Therapeutics (Hangzhou) Co. Ltd., priority 2019, published 2022).

Structures can show the parent of a compound that is named as a salt.

One data set addresses T1, BRD4 (BD1+BD2) (Homo sapiens, UniProt O60885).
T1 construct: 1.8 μg/ml recombinant BRD4 (BD1+BD2 domains) protein
Conditions: read-out: BRD4 Binding Potency.

For another data set, the system named is MV4-11 cells. Briefly: MV4-11 Cell Cytotoxicity Assay. Type of data set: cell-based, human. Conditions: CCK-8; for IC50 at 72 h: human, MV4-11 cells. From the text: % Inhibition=100−(D−B)/(S−B)*100%.
S: The absorbance of the maximum (cells with DMSO)
B: The absorbance of the minimum (medium with DMSO)

The next data set addresses HSP90α (Homo sapiens, UniProt P07900). Briefly: HSP90α Binding Fluorescent Polarization (FP) Assay. Conditions: competition with FITC-geldanamycin; read-out: HSP90 Binding Potency. The method, boiled down:
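Duplicate wells held BSA buffer, FITC-geldanamycin tracer, compound (3-fold dilution plate spanning 40 μM–2.0 nM) and recombinant protein diluted to 28 μg/ml before addition. Polarization read at 30, 60 and 120 min, 25 °C. Background-corrected mP values gave IC50 through a four-parameter inhibitor-response fit.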

On to `Cc1nn(-c2ccc(C(N)=O)c(NCCOCCN3CCN(C(=O)C[C@@H]4N=C(c5ccc(Cl)cc5)c5c(sc(C)c5C)-n5c(C)nnc54)CC3)c2)c2c1C(=O)CC(C)(C)C2` [Compound 24, 2-((2-(2-(4-(2-((6S)-4-(4-chlorophenyl)-2,3,9-trimethyl-6H-thieno[3,2-f][1,2,4]triazolo[4,3-a][1,4]diazepin-6-yl)acetyl)piperazin-1-yl)ethoxy)ethyl)amino)-4-(3,6,6-trimethyl-4-oxo-4,5,6,7-tetrahydro-1H-indazol-1-yl)benzamide], for which the IC50 at BRD4 (BD1+BD2) and at HSP90α was over 1000 nM throughout. In the data set on MV4-11 cells, this compound returned an IC50 at 72 h of 100 to 1000 nM.

Consider `Cc1sc2c(c1C)C(c1ccc(Cl)cc1)=N[C@H](CC(=O)N1CCC(CN3CCN(Cc4ccc(-n5c(O)nnc5-c5cc(C(C)C)c(O)cc5O)cc4)CC3)CC1)c1nnc(C)n1-2` [Compound 125, (R)-2-(4-(4-chlorophenyl)-2,3,9-trimethyl-6H-thieno[3,2-f][1,2,4]triazolo[4,3-a][1,4]diazepin-6-yl)-1-(4-((4-(4-(3-(2,4-dihydroxy-5-isopropylphenyl)-5-hydroxy-4H-1,2,4-triazol-4-yl)benzyl)piperazin-1-yl)methyl)piperidin-1-yl)ethan-1-one hydrochloride], for which the values for the IC50 on BRD4 (BD1+BD2) and on HSP90α were over 1000 nM and under 100 nM, respectively. This compound returned an IC50 at 72 h with MV4-11 cells of under 100 nM.

With `COc1cccc(-c2cc(C(=O)Nc3ccc(-c4ccc(OC5CCN(CC[C@@H]6N=C(c7ccc(Cl)cc7)c7c(sc(C)c7C)-n7c(C)nnc76)CC5)cc4OCCN(C)C)cc3)ccc2OC)c1` [Compound 140], the IC50 at BRD4 (BD1+BD2), in the data set with MV4-11 cells (72 hr) and at HSP90α was over 1000 nM in each case.

As for `CCc1cc(C(=O)N2Cc3ccc(CN4CCN(C(=O)C[C@@H]5N=C(c6ccc(Cl)cc6)c6c(sc(C)c6C)-n6c(C)nnc65)CC4)cc3C2)c(O)cc1O` [Compound 142, (S)-2-(4-(4-chlorophenyl)-2,3,9-trimethyl-6H-thieno[3,2-f][1,2,4]triazolo[4,3-a][1,4]diazepin-6-yl)-1-(4-((2-(5-ethyl-2,4-dihydroxybenzoyl)isoindolin-5-yl)methyl)piperazin-1-yl)ethan-1-one], the IC50 on BRD4 (BD1+BD2) and at HSP90α was 100 to 1000 nM each time. This compound yielded an IC50 at 72 h in the data set with MV4-11 cells of 100 to 1000 nM.

For the compound `Cc1sc2c(c1C)C(c1ccc(Cl)cc1)=N[C@@H](CC(=O)N1CCC(CN[C@@H](C)C(=O)N[C@H](C(=O)N3CCC[C@H]3C(=O)Nc3snnc3-c3ccccc3)C3CCCCC3)CC1)c1nnc(C)n1-2` [Compound 129, (S)-1-((S)-2-((S)-2-(((1-(2-((S)-4-(4-chlorophenyl)-2,3,9-trimethyl-6H-thieno[3,2-f][1,2,4]triazolo[4,3-a][1,4]diazepin-6-yl)acetyl)piperidin-4-yl)methyl)amino)propanamido)-2-cyclohexylacetyl)-N-(4-phenyl-1,2,3-thiadiazol-5-yl)pyrrolidine-2-carboxamide], the IC50 at BRD4 (BD1+BD2) and on HSP90α was over 1000 nM throughout. The IC50 at 72 h in the data set with MV4-11 cells was over 1000 nM.

As to `CCN(CC)CCNC(=O)c1nnc(-c2ccc(O)cc2O)n1-c1ccc(CN2CCN(CC3CCN(C(=O)C[C@@H]4N=C(c5ccc(Cl)cc5)c5c(sc(C)c5C)-n5c(C)nnc54)CC3)CC2)cc1` [Compound 111, (S)-4-(4-((4-((1-(2-(4-(4-chlorophenyl)-2,3,9-trimethyl-6H-thieno[3,2-f][1,2,4]triazolo[4,3-a][1,4]diazepin-6-yl)acetyl)piperidin-4-yl)methyl)piperazin-1-yl)methyl)phenyl)-N-(2-(diethylamino)ethyl)-5-(2,4-dihydroxyphenyl)-4H-1,2,4-triazole-3-carboxamide, trifluoroacetic acid], the results for the IC50 on BRD4 (BD1+BD2) and on HSP90α were under 100 nM and 100 to 1000 nM, respectively. In addition, the IC50 at 72 h with MV4-11 cells was under 100 nM.

Regarding `CCNC(=O)c1nnc(-c2cc(C(C)C)c(O)cc2O)n1-c1ccc(CC2CCN(CC3CCN(C(=O)C[C@@H]4N=C(c5ccc(Cl)cc5)c5c(sc(C)c5C)-n5c(C)nnc54)CC3)CC2)cc1` [Compound 90, (S)-4-(4-((1-((1-(2-(4-(4-chlorophenyl)-2,3,9-trimethyl-6H-thieno[3,2-f][1,2,4]triazolo[4,3-a][1,4]diazepin-6-yl)acetyl)piperidin-4-yl)methyl)piperidin-4-yl)methyl)phenyl)-5-(2,4-dihydroxy-5-isopropylphenyl)-N-ethyl-4H-1,2,4-triazole-3-carboxamide], the IC50 at BRD4 (BD1+BD2) and at HSP90α was 100 to 1000 nM in each case. Moreover, the IC50 at 72 h in the data set on MV4-11 cells is under 100 nM.

In the case of `CCCc1cc(-c2nnc(O)n2-c2ccc(CN3CCN(CC4CCN(C(=O)C[C@@H]5N=C(c6ccc(Cl)cc6)c6c(sc(C)c6C)-n6c(C)nnc65)CC4)CC3)cc2)c(O)cc1O` [Compound 11, (S)-2-(4-(4-chlorophenyl)-2,3,9-trimethyl-6H-thieno[3,2-f][1,2,4]triazolo[4,3-a][1,4]diazepin-6-yl)-1-(4-((4-(4-(3-(2,4-dihydroxy-5-propylphenyl)-5-hydroxy-4H-1,2,4-triazol-4-yl)benzyl)piperazin-1-yl)methyl)piperidin-1-yl)ethan-1-one, trifluoroacetic acid], the results for the IC50 at BRD4 (BD1+BD2) and on HSP90α were 100 to 1000 nM and under 100 nM, respectively. The compound also gave an IC50 at 72 h in the data set with MV4-11 cells of under 100 nM.

Consider `Cc1sc2c(c1C)C(c1ccc(Cl)cc1)=N[C@@H](CC(=O)NCC1CN(C(=O)C3CCN(Cc4ccc(-n5c(O)nnc5-c5cc(C(C)C)c(O)cc5O)cc4)CC3)C1)c1nnc(C)n1-2` [Compound 59, 2-((6S)-4-(4-chlorophenyl)-2,3,9-trimethyl-6H-thieno[3,2-f][1,2,4]triazolo[4,3-a][1,4]diazepin-6-yl)-N-((1-(1-(4-(3-(2,4-dihydroxy-5-isopropylphenyl)-5-hydroxy-4H-1,2,4-triazol-4-yl)benzyl)piperidine-4-carbonyl)azetidin-3-yl)methyl)acetamide, trifluoroacetic acid], for which the IC50 on BRD4 (BD1+BD2) and at HSP90α was 100 to 1000 nM throughout. In the data set with MV4-11 cells, this compound gave an IC50 at 72 h of under 100 nM.

With `COc1cccc(-c2cc(C(=O)Nc3ccc(-c4ccc(OC5CCN(C(=O)CNC(=O)C[C@@H]6N=C(c7ccc(Cl)cc7)c7c(sc(C)c7C)-n7c(C)nnc76)CC5)cc4OCCN(C)C)cc3)ccc2OC)c1` [Compound 138], the IC50 at BRD4 (BD1+BD2) is under 100 nM; at HSP90α, over 1000 nM. Moreover, the IC50 at 72 h with MV4-11 cells is under 100 nM.

`Cc1sc2c(c1C)C(c1ccc(Cl)cc1)=N[C@@H](CC(=O)NCCOc1ccc(-n3c(S)nnc3-c3cc(C(C)C)c(O)cc3O)cc1)c1nnc(C)n1-2` [Compound 32, (S)-2-(4-(4-chlorophenyl)-2,3,9-trimethyl-6H-thieno[3,2-f][1,2,4]triazolo[4,3-a][1,4]diazepin-6-yl)-N-(2-(4-(3-(2,4-dihydroxy-5-isopropylphenyl)-5-mercapto-4H-1,2,4-triazol-4-yl)phenoxy)ethyl)acetamide]: the values for the IC50 at BRD4 (BD1+BD2) and on HSP90α were over 1000 nM and 100 to 1000 nM, respectively. In addition, the IC50 at 72 h in the data set with MV4-11 cells lay within 100 to 1000 nM.

With `Cc1sc2c(c1C)C(c1ccc(Cl)cc1)=N[C@@H](CC(=O)N1CCN(c3ccc(-n4c(O)nnc4-c4cc(C(C)C)c(O)cc4O)cc3)CC1)c1nnc(C)n1-2` [Compound 79, (S)-2-(4-(4-chlorophenyl)-2,3,9-trimethyl-6H-thieno[3,2-f][1,2,4]triazolo[4,3-a][1,4]diazepin-6-yl)-1-(4-(4-(3-(2,4-dihydroxy-5-isopropylphenyl)-5-hydroxy-4H-1,2,4-triazol-4-yl)phenyl)piperazin-1-yl)ethan-1-one], the IC50 at BRD4 (BD1+BD2) and at HSP90α was 100 to 1000 nM each time. The IC50 at 72 h with MV4-11 cells was under 100 nM.

Take `Cc1sc2c(c1C)C(c1ccc(Cl)cc1)=N[C@@H](CC(=O)NCCOCCOCCOc1ccc(-n3c(S)nnc3-c3cc(C(C)C)c(O)cc3O)cc1)c1nnc(C)n1-2` [Compound 34, (S)-2-(4-(4-chlorophenyl)-2,3,9-trimethyl-6H-thieno[3,2-f][1,2,4]triazolo[4,3-a][1,4]diazepin-6-yl)-N-(2-(2-(2-(4-(3-(2,4-dihydroxy-5-isopropylphenyl)-5-mercapto-4H-1,2,4-triazol-4-yl)phenoxy)ethoxy)ethoxy)ethyl)acetamide]: the IC50 on BRD4 (BD1+BD2) and on HSP90α was over 1000 nM throughout. Further, the IC50 at 72 h with MV4-11 cells was 100 to 1000 nM.

In the case of `Cc1sc2c(c1C)C(c1ccc(Cl)cc1)=N[C@@H](CC(=O)N1CCN(Cc3ccc(-n4c(O)nnc4-c4cc(C(C)C)c(O)cc4O)cc3)CC1)c1nnc(C)n1-2` [Compound 38, 2-((6S)-4-(4-chlorophenyl)-2,3,9-trimethyl-6H-thieno[3,2-f][1,2,4]triazolo[4,3-a][1,4]diazepin-6-yl)-1-(4-(4-(3-(2,4-dihydroxy-5-isopropylphenyl)-5-hydroxy-4H-1,2,4-triazol-4-yl)benzyl)piperazin-1-yl)ethanone, trifluoroacetic acid], the IC50 at BRD4 (BD1+BD2) is over 1000 nM; at HSP90α it was 100 to 1000 nM. In the data set with MV4-11 cells, the IC50 at 72 h is under 100 nM.

Take `Cc1nn(-c2ccc(C(N)=O)c(NCCOCCC3CCN(C(=O)C[C@@H]4N=C(c5ccc(Cl)cc5)c5c(sc(C)c5C)-n5c(C)nnc54)CC3)c2)c2c1C(=O)CC(C)(C)C2` [Compound 23, 2-((2-(2-(1-(2-((6S)-4-(4-chlorophenyl)-2,3,9-trimethyl-6H-thieno[3,2-f][1,2,4]triazolo[4,3-a][1,4]diazepin-6-yl)acetyl)piperidin-4-yl)ethoxy)ethyl)amino)-4-(3,6,6-trimethyl-4-oxo-4,5,6,7-tetrahydro-1H-indazol-1-yl)benzamide, trifluoroacetic acid]: the IC50 at BRD4 (BD1+BD2) and at HSP90α was over 1000 nM each time. Also, in the data set on MV4-11 cells, the IC50 at 72 h lay in the range of 100 to 1000 nM.
